Laboratory results taken from ChEMBL document CHEMBL3351867, “Sequence-specific DNA alkylation and transcriptional inhibition by long-chain hairpin pyrrole-imidazole polyamide-chlorambucil conjugates targeting CAG/CTG trinucleotide repeats” (Bioorg Med Chem, 2014).
One block for each compound: values may come before it. Calls of active or inactive are those of the source. The rule behind the calls is not given here.

What was measured:
[1] = Induction of DNA alkylation of DNA fragments with (CAG)12 repeat sequence (unknown origin) assessed as inhibition of T7 RNA polymerase-mediated transcription using T7 promoter primer and sp6 promoter primer at 10 to 30 nM after 18 hrs by […] staining based high resolution gel electrophoresis
[2] = Induction of DNA alkylation of DNA fragments with (CTG)12 repeat sequence (unknown origin) assessed as inhibition of T7 RNA polymerase-mediated transcription using T7 promoter primer and sp6 promoter primer at 10 to 30 nM after 18 hrs by […] staining based high resolution gel electrophoresis
[3] = Binding affinity to biotinylated (5'-AGCAGCAGCA-3'/5'-TGCTGCTGCT-3') hairpin DNA (unknown origin) by SPR assay
[4] = Induction of DNA alkylation of 5'-Texas Red-labeled 214 bp DNA fragments with (5'-(CAG)12CAA-3' repeat sequence (unknown origin) at 2.5 to 20 nM after 18 hrs by high resolution gel electrophoresis
[5] = Induction of DNA alkylation of 5'-Texas Red-labeled 214 bp DNA fragments with (5'-TTG(CTG)12-3' repeat sequence (unknown origin) at 2.5 to 20 nM after 18 hrs by high resolution gel electrophoresis
[6] = Binding affinity to biotinylated (5'-AGCAGCAGCA-3'/5'-TGCTGCTGCT-3') hairpin DNA (unknown origin) assessed as […] of compound from 1:1 compound and DNA complex by SPR assay
[7] = Binding affinity to biotinylated (5'-AGCAGCAGCA-3'/5'-TGCTGCTGCT-3') hairpin DNA (unknown origin) assessed as […] of compound from 2:1 compound and DNA complex by SPR assay
[8] = Induction of DNA alkylation of 5'-Texas Red-labeled 214 bp DNA fragments with (CAG)12 repeat sequence (unknown origin) at 2.5 to 20 nM after 18 hrs by high resolution gel electrophoresis
[9] = Induction of DNA alkylation of 5'-Texas Red-labeled 214 bp DNA fragments with (CAG)12 repeat sequence (unknown origin) at 150 nmol after 18 hrs by high resolution gel electrophoresis
[10] = Induction of DNA alkylation of 5'-Texas Red-labeled 214 bp DNA fragments with (CTG)12 repeat sequence (unknown origin) at 2.5 to 20 nM after 18 hrs by high resolution gel electrophoresis

SMILES: CC(=O)Nc1cn(C)c(C(=O)Nc2cc(C(=O)NCCC(=O)Nc3cn(C)c(C(=O)Nc4cc(C(=O)NCCC(=O)Nc5cn(C)c(C(=O)Nc6cc(C(=O)NCC[C@@H](N)C(=O)Nc7cn(C)c(C(=O)Nc8cc(C(=O)NCCC(=O)Nc9cn(C)c(C(=O)Nc%10cc(C(=O)NCCC(=O)Nc%11cn(C)c(C(=O)Nc%12cc(C(=O)NCCC(=O)NCCCN(C)CCCN)n(C)c%12)n%11)n(C)c%10)n9)n(C)c8)n7)n(C)c6)n5)n(C)c4)n3)n(C)c2)n1
Activity [1]: inactive
Activity [2]: inactive
Kd [3]: 11 nM

SMILES: CC(=O)Nc1cn(C)c(C(=O)Nc2cc(C(=O)NCCC(=O)Nc3cn(C)c(C(=O)Nc4cc(C(=O)NCCC(=O)NCCCN(C)CCCN)n(C)c4)n3)n(C)c2)n1
Kd [6]: 610 nM
Kd [7]: 13 nM

SMILES: CC(=O)Nc1cn(C)c(C(=O)Nc2cc(C(=O)NCCC(=O)Nc3cn(C)c(C(=O)Nc4cc(C(=O)NCCCC(=O)Nc5cn(C)c(C(=O)Nc6cc(C(=O)NCCC(=O)Nc7cn(C)c(C(=O)Nc8cc(C(=O)NCCC(=O)NCCCN(C)CCCN)n(C)c8)n7)n(C)c6)n5)n(C)c4)n3)n(C)c2)n1
Kd [3]: 14 nM

SMILES: CC(=O)Nc1cn(C)c(C(=O)Nc2cc(C(=O)NCCC(=O)Nc3cn(C)c(C(=O)Nc4cc(C(=O)NCCCC(=O)Nc5cn(C)c(C(=O)Nc6cc(C(=O)NCCC(=O)Nc7cn(C)c(C(=O)Nc8cc(C(=O)NCCC(=O)NCCCN(C)CCCNC(=O)CCCc9ccc(N(CCCl)CCCl)cc9)n(C)c8)n7)n(C)c6)n5)n(C)c4)n3)n(C)c2)n1
Activity [8]: inactive
Activity [9]: Active
Activity [10]: Active

SMILES: CC(=O)Nc1cn(C)c(C(=O)Nc2cc(C(=O)NCCC(=O)Nc3cn(C)c(C(=O)Nc4cc(C(=O)NCCC(=O)NCCCN(C)CCCNC(=O)CCCc5ccc(N(CCCl)CCCl)cc5)n(C)c4)n3)n(C)c2)n1
Activity [8]: inactive
Activity [10]: inactive

Further lines, results first:

Activity [4]: Active
Activity [5]: Active
Activity [1]: Dose-dependent effect
Activity [2]: Dose-dependent effect
SMILES: CC(=O)Nc1cn(C)c(C(=O)Nc2cc(C(=O)NCCC(=O)Nc3cn(C)c(C(=O)Nc4cc(C(=O)NCCC(=O)Nc5cn(C)c(C(=O)Nc6cc(C(=O)NCC[C@@H](N)C(=O)Nc7cn(C)c(C(=O)Nc8cc(C(=O)NCCC(=O)Nc9cn(C)c(C(=O)Nc%10cc(C(=O)NCCC(=O)Nc%11cn(C)c(C(=O)Nc%12cc(C(=O)NCCC(=O)NCCCN(C)CCCNC(=O)CCCc%13ccc(N(CCCl)CCCl)cc%13)n(C)c%12)n%11)n(C)c%10)n9)n(C)c8)n7)n(C)c6)n5)n(C)c4)n3)n(C)c2)n1

Kd [3]: 53 nM
SMILES: CC(=O)Nc1cn(C)c(C(=O)Nc2cc(C(=O)NCCC(=O)Nc3cn(C)c(C(=O)Nc4cc(C(=O)NCCC(=O)Nc5cn(C)c(C(=O)Nc6cc(C(=O)NCCCC(=O)Nc7cn(C)c(C(=O)Nc8cc(C(=O)NCCC(=O)Nc9cn(C)c(C(=O)Nc%10cc(C(=O)NCCC(=O)Nc%11cn(C)c(C(=O)Nc%12cc(C(=O)NCCC(=O)NCCCN(C)CCCN)n(C)c%12)n%11)n(C)c%10)n9)n(C)c8)n7)n(C)c6)n5)n(C)c4)n3)n(C)c2)n1

Activity [8]: Active
Activity [10]: Active
Activity [4]: Active
Activity [5]: Active
SMILES: CC(=O)Nc1cn(C)c(C(=O)Nc2cc(C(=O)NCCC(=O)Nc3cn(C)c(C(=O)Nc4cc(C(=O)NCCC(=O)Nc5cn(C)c(C(=O)Nc6cc(C(=O)NCCCC(=O)Nc7cn(C)c(C(=O)Nc8cc(C(=O)NCCC(=O)Nc9cn(C)c(C(=O)Nc%10cc(C(=O)NCCC(=O)Nc%11cn(C)c(C(=O)Nc%12cc(C(=O)NCCC(=O)NCCCN(C)CCCNC(=O)CCCc%13ccc(N(CCCl)CCCl)cc%13)n(C)c%12)n%11)n(C)c%10)n9)n(C)c8)n7)n(C)c6)n5)n(C)c4)n3)n(C)c2)n1
